The source of these data is paper PMC7384767 (Journal of natural products, 2020).

The test system of this test is M. tuberculosis H37Rv. The test is described as follows: Microplate Alamar Blue assay. It counts as cell-based. Conditions: result in words.

In the case of `C=CC(C)(C)n1cc(C[C@@H]2NC(=O)[C@H](CC(C)C)N(C)C2=O)c2ccccc21` [Compound 9, rufomyazine], the anti-TB activity result is listed as “did not show anti-TB activity”.
